PubChem BioAssay AID248 (DTP/NCI, 2004)
“And” between values parts separate entries of the source, which are not always exact repeats. Equal values may be shown once. Toxic doses and inconclusive results are not listed. Rule as the data show it: active = T/C of 150% or more; inactive = T/C below 125%.

Tested on: L1210 leukemia ip in BDF1 mice, survival T/C
Experiment: NCI In Vivo Anticancer Drug Screen. Data for tumor model L1210 Leukemia (intraperitoneal) in B6D2F1 (BDF1) mice
Settings: endpoint: mean survival time, higher = longer survival
Procedure, shortened: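 Value reflects the ratio of survival in compound-treated mice to survival in vehicle-treated controls, with both groups carrying the same transplanted tumor.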

[1] = dose: 50.0 mg/kg/injection, schedule: Q01DX009 (ip), vehicle: saline with Tween-80
[2] = dose: 100.0 mg/kg/injection, schedule: Q01DX009 (ip), vehicle: saline with Tween-80
[3] = dose: 100.0 mg/kg/injection, schedule: Q04DX003 (ip), vehicle: saline with Tween-80
[4] = dose: 200.0 mg/kg/injection, schedule: Q01DX009 (ip), vehicle: saline with Tween-80
[5] = dose: 200.0 mg/kg/injection, schedule: Q04DX003 (ip), vehicle: saline with Tween-80
[6] = dose: 100.0 mg/kg/injection, schedule: Q01DX001 (ip), vehicle: saline
[7] = dose: 200.0 mg/kg/injection, schedule: Q01DX001 (ip), vehicle: saline
[8] = dose: 100.0 mg/kg/injection, schedule: Q04DX003 (ip), vehicle: Klucel (hydroxypropylcellulose) (HPC)
[9] = dose: 200.0 mg/kg/injection, schedule: Q04DX003 (ip), vehicle: Klucel (hydroxypropylcellulose) (HPC)
[10] = dose: 400.0 mg/kg/injection, schedule: Q04DX003 (ip), vehicle: Klucel (hydroxypropylcellulose) (HPC)
[11] = dose: 400.0 mg/kg/injection, schedule: Q01DX001 (ip), vehicle: Klucel (hydroxypropylcellulose) (HPC)
[12] = dose: 100.0 mg/kg/injection, schedule: Q01DX009 (ip), vehicle: Klucel (hydroxypropylcellulose) (HPC)
[13] = dose: 400.0 mg/kg/injection, schedule: Q01DX009 (ip), vehicle: Klucel (hydroxypropylcellulose) (HPC)
[14] = dose: 200.0 mg/kg/injection, schedule: Q01DX009 (ip), vehicle: Klucel (hydroxypropylcellulose) (HPC)
[15] = dose: 25.0 mg/kg/injection, schedule: Q04DX003 (ip), vehicle: saline with Tween-80
[16] = dose: 50.0 mg/kg/injection, schedule: Q04DX003 (ip), vehicle: saline with Tween-80
[17] = dose: 400.0 mg/kg/injection, schedule: Q01DX001 (ip), vehicle: saline
[18] = dose: 75.0 mg/kg/injection, schedule: Q01DX001 (ip), vehicle: saline
[19] = dose: 300.0 mg/kg/injection, schedule: Q01DX001 (ip), vehicle: saline
[20] = dose: 400.0 mg/kg/injection, schedule: Q04DX003 (ip), vehicle: saline with Tween-80

Measured: T/C

S=C([S-])[P+](C1CCCCC1)(C1CCCCC1)C1CCCCC1
inactive: [1] 97 % of control | [2] 97 % of control | [3] 97 % of control | [4] 97 % of control | [5] 87 % of control

CCCN(CCC)CP(=S)(CN(CCC)CCC)CN(CCC)CCC
inactive: [6] 92 % of control | [7] 90 % of control

Cc1cccc(C(C#N)(CCC#N)N2CCOCC2)n1 (stereo not drawn)
inactive: [1] 91 % of control | [2] 98 % of control | [4] 94 % of control

O=C(Nc1ccc(F)c(Cl)c1)N(CCO)C1CCCCC1
inactive: [8] 101 % of control | [9] 100 % of control | [10] 92 % of control

COc1ccc(N(N=O)C(C)=O)cc1
inactive: dose: 5.0 mg/kg/injection, schedule: Q01DX001 (ip), vehicle: saline 95 % of control | dose: 10.0 mg/kg/injection, schedule: Q01DX001 (ip), vehicle: saline 97 % of control | dose: 20.0 mg/kg/injection, schedule: Q01DX001 (ip), vehicle: saline 106 % of control | dose: 40.0 mg/kg/injection, schedule: Q01DX001 (ip), vehicle: saline 106 % of control

CCCCn1c(=O)cc(C)c2ccccc21
inactive: dose: 100.0 mg/kg/injection, schedule: Q01DX001 (ip), vehicle: other 95 % of control | dose: 200.0 mg/kg/injection, schedule: Q01DX001 (ip), vehicle: other 92 % of control | dose: 400.0 mg/kg/injection, schedule: Q01DX001 (ip), vehicle: other 94 % of control

C/C(=C/C=C(c1ccccc1)c1ccccc1)C1CCC2C3CCC4CC5CCC4(C)C3(O5)C(=O)CC12C (stereo not drawn)
inactive: dose: 100.0 mg/kg/injection, schedule: Q04DX003 (sc), vehicle: steriod suspending solution 96 % of control | dose: 200.0 mg/kg/injection, schedule: Q04DX003 (sc), vehicle: steriod suspending solution 93 % of control | dose: 400.0 mg/kg/injection, schedule: Q04DX003 (sc), vehicle: steriod suspending solution 93 % of control

O=C1OC(c2ccccc2)CC1NCc1ccccc1 (stereo not drawn)
inactive: dose: 100.0 mg/kg/injection, schedule: Q01DX001 (ip), vehicle: Klucel (hydroxypropylcellulose) (HPC) 98 % of control | dose: 200.0 mg/kg/injection, schedule: Q01DX001 (ip), vehicle: Klucel (hydroxypropylcellulose) (HPC) 101 % of control | [11] 96 % of control

O=C(COc1ccc(Cl)cc1Cl)NCCSCc1ccccc1
inactive: [12] 91 % of control | [13] 89 % of control

NCc1c(Cl)c(Cl)c(Cl)c(CN)c1Cl
inactive: dose: 50.0 mg/kg/injection, schedule: Q01DX001 (ip), vehicle: carboxymethylcellulose (CMC) 89 % of control | [1] 97 % of control | dose: 100.0 mg/kg/injection, schedule: Q01DX001 (ip), vehicle: carboxymethylcellulose (CMC) 94 % of control | [2] 102 % of control | [4] 93 % of control

O=C(N/N=C/c1ccco1)c1cccnc1
inactive: [12] 97 % of control | [14] 101 % of control

O=S(=O)(F)c1ccc(CBr)cc1
inactive: dose: 25.0 mg/kg/injection, schedule: Q01DX001 (ip), vehicle: saline 113 % of control | dose: 50.0 mg/kg/injection, schedule: Q01DX001 (ip), vehicle: saline 123 % of control | [6] 95 % of control and 98 % of control

CCCCCCCCCCCCCCSCCSCCSCCCCCCCCCCCCCC
inactive: dose: 12.5 mg/kg/injection, schedule: Q01DX001 (ip), vehicle: Klucel (hydroxypropylcellulose) (HPC) 103 % of control | dose: 25.0 mg/kg/injection, schedule: Q01DX001 (ip), vehicle: Klucel (hydroxypropylcellulose) (HPC) 97 % of control | dose: 50.0 mg/kg/injection, schedule: Q01DX001 (ip), vehicle: Klucel (hydroxypropylcellulose) (HPC) 89 % of control | [11] 87 % of control

CCCCCCCCCCCCCCC1CC(=O)OC1=O (stereo not drawn)
inactive: [12] 92 % of control | [8] 86 % of control | [14] 86 % of control | [9] 88 % of control | [10] 93 % of control

Cc1cc2ccccc2oc1=O
inactive: dose: 25.0 mg/kg/injection, schedule: Q01DX009 (ip), vehicle: saline with Tween-80 101 % of control | [15] 98 % of control | [1] 114 % of control | [16] 93 % of control | [2] 107 % of control | [3] 86 % of control

COc1ccc(/C=N/NC(=S)Nc2cccc3cccnc23)cc1OC
inactive: [6] 100 % of control | [7] 94 % of control | [17] 86 % of control

CCOC(=O)C(CCC(C)=O)C1=NC(C)(C)CC(C)O1 (stereo not drawn)
inactive: dose: 100.0 mg/kg/injection, schedule: Q01DX009 (ip), vehicle: saline sonified 102 % of control | dose: 200.0 mg/kg/injection, schedule: Q01DX009 (ip), vehicle: saline sonified 109 % of control | dose: 400.0 mg/kg/injection, schedule: Q01DX009 (ip), vehicle: saline sonified 98 % of control

CN(C)N=Nc1ccc(C(=O)OC2CCC3C4CCC5=CC(=O)CCC5(C)C4CCC23C)cc1 (stereo not drawn)
inactive: dose: 10.0 mg/kg/injection, schedule: Q01DX009 (ip), vehicle: Klucel (hydroxypropylcellulose) (HPC) 96 % of control | dose: 100.0 mg/kg/injection, schedule: Q04DX002 (ip), vehicle: Klucel (hydroxypropylcellulose) (HPC) 94 % of control | [14] 102 % of control | dose: 200.0 mg/kg/injection, schedule: Q04DX002 (ip), vehicle: Klucel (hydroxypropylcellulose) (HPC) 102 % of control | [13] 97 % of control | dose: 400.0 mg/kg/injection, schedule: Q04DX002 (ip), vehicle: Klucel (hydroxypropylcellulose) (HPC) 91 % of control

O=C(O)C1C2CCCCC21 (stereo not drawn)
inactive: dose: 100.0 mg/kg/injection, schedule: Q01DX009 (ip), vehicle: saline 97 % of control | dose: 100.0 mg/kg/injection, schedule: Q04DX003 (ip), vehicle: saline 102 % of control | dose: 200.0 mg/kg/injection, schedule: Q01DX009 (ip), vehicle: saline 97 % of control | dose: 200.0 mg/kg/injection, schedule: Q04DX003 (ip), vehicle: saline 103 % of control | dose: 400.0 mg/kg/injection, schedule: Q01DX009 (ip), vehicle: saline 90 % of control | dose: 400.0 mg/kg/injection, schedule: Q04DX003 (ip), vehicle: saline 94 % of control

CCOCC(=O)CC1=CCCCC1
inactive: [1] 94 % of control | [2] 102 % of control | [4] 94 % of control

O=[N+]([O-])c1ccc(N2CCOCC2)c2c1no[n+]2[O-]
inactive: dose: 12.5 mg/kg/injection, schedule: Q04DX003 (ip), vehicle: saline with Tween-80 108 % of control | [15] 118 % of control | [16] 116 % of control

C[n+]1ccccc1/C=C/c1ccc(O)c(O)c1
inactive: [18] 96 % of control | [19] 102 % of control

Brc1nc(-c2ccccc2)c(-c2ccccc2)nc1Br
inactive: [6] 96 % of control | [7] 88 % of control | [17] 88 % of control

CCCCCCCCC1CCCC2C(C)CCC(C)C12 (stereo not drawn)
inactive: [18] 96 % of control | dose: 150.0 mg/kg/injection, schedule: Q01DX001 (ip), vehicle: saline 95 % of control | [19] 104 % of control

c1ccc([Si](c2ccccc2)(c2ccccc2)c2ccc([Si](c3ccccc3)(c3ccccc3)c3ccccc3)cc2)cc1
inactive: [2] 95 % of control | [3] 103 % of control | [4] 92 % of control | [5] 90 % of control | dose: 400.0 mg/kg/injection, schedule: Q01DX009 (ip), vehicle: saline with Tween-80 90 % of control | [20] 106 % of control

N#CCCS(=O)(=O)CCc1ccccc1
inactive: dose: 75.0 mg/kg/injection, schedule: Q01DX009 (ip), vehicle: Klucel (hydroxypropylcellulose) (HPC) 96 % of control | dose: 150.0 mg/kg/injection, schedule: Q01DX009 (ip), vehicle: Klucel (hydroxypropylcellulose) (HPC) 96 % of control | dose: 300.0 mg/kg/injection, schedule: Q01DX009 (ip), vehicle: Klucel (hydroxypropylcellulose) (HPC) 105 % of control

O=Cc1ccc(/C=C2\C=Cc3ccccc32)cc1
inactive: [3] 93 % of control | [5] 91 % of control | [20] 92 % of control

CCC(CC)(COC(=O)c1ccc(N)cc1)C1CCCCC1
inactive: dose: 150.0 mg/kg/injection, schedule: Q01DX001 (ip), vehicle: carboxymethylcellulose (CMC) 94 % of control
